In article PMC10610424, “Enhancing Solubility and Dissolution Rate of Antifungal Drug Ketoconazole through Crystal Engineering” (Pharmaceuticals, 2023):
Values after ≈ are worked out from the molar mass of the structure shown.

Assays:
[1] = cited from earlier work
[2] = Equilibrium solubility, shake flask method, HPLC of KTZ; type: physicochemical; conditions: for Equilibrium solubility, concentration of KTZ / solubility thermodynamic at 48 h: 37.0 °C, mean ± SD, triplicate; for Equilibrium solubility, concentration of KTZ / Solid-form stability of residual solids after equilibrium solubility experiments (PXRD) / solubility thermodynamic at 48 h: 48 h; for Solid-form stability of residual solids after equilibrium solubility experiments (PXRD): ultrapure water and pH 4.5 acetate buffer
Method: The solutions were stirred at 160 strokes min^−1 with a magnetic bar at 37 °C for 48 h to reach equilibrium. The suspension was filtered through a 0.22 μm nylon filter membrane, diluted appropriately, and analyzed by subsequent high-performance liquid chromatography (HPLC) analysis. […] An Agilent Eclipse XDB−C18 (250 mm × 4.6 mm, 5 μm) column was used throughout the process of elution with the column temperature set to 30 °C. The mobile phase, consisting of methanol and water (80/20, v/v), was run at 1.0 mL min^−1 with a detection wavelength of 254 nm. The injection sample volume was 10 μL. The measurements were performed based on an external standard method. All the solubility experiments were performed in triplicate and the results are expressed as the mean value ± standard deviation (SD). Residual solids were collected after the equilibrium solubility experiment and characterized by PXRD for solid-form stability examinations.

[3] = Powder dissolution experiments, basket method; type: physicochemical; conditions: pure water and pH 4.5 acetate buffer, 37 °C, up to 480 min
Method: The powder dissolution experiments were performed via a dissolution apparatus (RC12AD dissolution tester, TDTF Technology Co., Ltd., Tianjin, China) by a basket method in pure water and pH 4.5 acetate buffer solution, respectively, with a rotation speed of 100 rpm under a temperature of 37 ± 0.2 °C [67]. […] At regular time intervals of 5, 15, 30, 60, 90, 120, 180, 240, 360, and 480 min, 1 mL of solution was extracted, and the withdrawn solutions were filtered using a 0.45 μm syringe tip filter. […] All the dissolution experiments were performed in triplicate. After the dissolution experiments, residual solids were collected, air-dried, and confirmed by PXRD.

pKa values and ΔpKa rule = type: physicochemical
Source text: To understand the crystal nature of the obtained solid forms (a salt or a cocrystal), three commonly used principles have been summarized, such as the ΔpKa rule, the position of the hydroxyl-H atom retrieved from SCXRD data, and the structural characteristics of interacting groups. The pKa values of the starting functional groups, the ΔpKa values between the two considered groups, the geometric parameters of the C−O bond lengths of the carboxylic/carboxylate group, and the endocyclic C−N−C bond angle are provided in Table 2. Firstly, the ΔpKa rule has long been used for the prediction of salt or cocrystal formation. It is generally accepted that when ΔpKa is >4, proton transfer is expected to occur and salt is anticipated to form; when ΔpKa < −1, on the other hand, the formation of non-ionized cocrystals prevails over that of salts. However, if the ΔpKa values are located in the region of −1 to 4, it is impossible to provide a prediction of a salt or a cocrystal. […] Secondly, the residual density map provided by the SXRD data (Figure S3) could be used to distinguish the location of the H atom and, thus, the cocrystal, salt, and salt–cocrystal continuum could be distinguished. […] Thirdly, the ionization state of the structures was also supported by the difference in the C−O bond lengths in a carboxylic/carboxylate group and the bond angle of C24−N4−C25 in the imidazole ring. In a neutral carboxylic group, the length of C−O is longer than that of C=O, while in the carboxylate anion, there is nearly no difference between the bond lengths of C−O and C−O^− [47]. The endocyclic C−N−C bond angle of the cationic N-heterocycle is higher than that of the neutral state.

[4] = value of the coformer (CCF) of the crystal named in the line; source not given; cited from earlier work
[5] = Accelerated stability test, PXRD; type: physicochemical; conditions: high temperature 60 °C, high humidity 90%, illumination 4500 lx; 0, 5, 10 days
Method: Approximately 50 mg of powdered samples were stored under the three test conditions and measured at regular time intervals (0, 5, and 10 days) by PXRD [68].

CC(=O)N1CCN(c2ccc(OCC3COC(Cn4ccnc4)(c4ccc(Cl)cc4Cl)O3)cc2)CC1.O=C(O)c1ccc(O)c(O)c1 (racemic) [KTZ-PCA-I]
Solubility in ultrapure water ([1]; ultrapure water): approximately 500 μg mL^−1

CC(=O)N1CCN(c2ccc(OCC3COC(Cn4ccnc4)(c4ccc(Cl)cc4Cl)O3)cc2)CC1.O=C(O)c1c(O)cccc1O (racemic) [KTZ−26DHB]
Solubility of ketoconazole in distilled water ([2]; distilled water (abstract)): 139.1 µg/mL | Equilibrium solubility, concentration of KTZ ([2]; pH 4.5 acetate buffer): 263.76 ± 8.51 µg/mL | Solid-form stability of residual solids after equilibrium solubility experiments (PXRD) ([2]; 37 °C): remained stable and nondissociable | Equilibrium solubility, concentration of KTZ ([2]; ultrapure water): 139.13 ± 14.25 µg/mL | Solid-form stability of residual solids after powder dissolution experiments (PXRD) [3]: remained stable | ΔpKa Values between CCF and KTZ (pKa values and ΔpKa rule): 3.9 | pKa Values of CCFs [4]: 1.6

CC(=O)N1CCN(c2ccc(OCC3COC(Cn4ccnc4)(c4ccc(Cl)cc4Cl)O3)cc2)CC1.O=C(O)c1cc([N+](=O)[O-])cc([N+](=O)[O-])c1 (racemic) [KTZ−35DNB]
Solubility of ketoconazole in distilled water ([2]; distilled water (abstract)): 191.7 µg/mL | Equilibrium solubility, concentration of KTZ ([2]; pH 4.5 acetate buffer): 273.66 ± 9.87 µg/mL | Solid-form stability of residual solids after equilibrium solubility experiments (PXRD) ([2]; 37 °C): remained stable and nondissociable | Equilibrium solubility, concentration of KTZ ([2]; ultrapure water): 191.67 ± 15.95 µg/mL | Solid-form stability of residual solids after powder dissolution experiments (PXRD) [3]: remained stable | ΔpKa Values between CCF and KTZ (pKa values and ΔpKa rule): 3.7 | pKa Values of CCFs [4]: 2.8

CC(=O)N1CCN(c2ccc(OCC3COC(Cn4ccnc4)(c4ccc(Cl)cc4Cl)O3)cc2)CC1.O=C(O)CCCC(=O)O (racemic) [KTZ−GTA]
Solubility of ketoconazole in distilled water ([2]; distilled water (abstract)): 2165.6 µg/mL | Equilibrium solubility, concentration of KTZ ([2]; pH 4.5 acetate buffer): 339.87 ± 28.33 µg/mL | Equilibrium solubility, concentration of KTZ ([2]; ultrapure water): 2165.56 ± 251.34 µg/mL | Solubility increase in water concerning ketoconazole ([2]; water): 1800 fold | ΔpKa Values between CCF and KTZ (pKa values and ΔpKa rule): 2.2 | pKa Values of CCFs [4]: 4.3

CC(=O)N1CCN(c2ccc(OCC3COC(Cn4ccnc4)(c4ccc(Cl)cc4Cl)O3)cc2)CC1.O=C(O)c1ccc(O)c(O)c1 (racemic) [KTZ−PCA-II]
Solubility of ketoconazole in distilled water ([2]; distilled water (abstract)): 386.3 µg/mL | Equilibrium solubility, concentration of KTZ ([2]; pH 4.5 acetate buffer): 308.06 ± 33.95 µg/mL | Equilibrium solubility, concentration of KTZ ([2]; ultrapure water): 386.34 ± 89.30 µg/mL | ΔpKa Values between CCF and KTZ (pKa values and ΔpKa rule): 2.0 | pKa Values of CCFs [4]: 4.5

CC(=O)N1CCN(c2ccc(OCC3COC(Cn4ccnc4)(c4ccc(Cl)cc4Cl)O3)cc2)CC1 (stereo not drawn) [KTZ, cis-1-acetyl-4-[4-[[2-(2,4-dichlorophenyl)-2-(1-H-imidazole-1-ylmethyl)-1,3-dioxolan-4-yl]methoxy]phenyl] piperazine, reference compound]
solubility at 48 h ([2]; 37 °C, thermodynamic from solid, distilled water (abstract), read-out: Solubility of ketoconazole in distilled water): 1.2 µg/mL (≈ 2.26 µM) | solubility thermodynamic at 48 h ([2]; aqueous buffer, thermodynamic from solid, pH 4.5 acetate buffer): 239 ± 4.69 µg/mL (≈ 451 µM) | solubility thermodynamic at 48 h ([2]; thermodynamic from solid, ultrapure water): 1.2 ± 0.27 µg/mL (≈ 2.26 µM) | Stability under accelerated storage conditions (PXRD) [5]: stable | Solubility in water ([1]; water, 25 °C): 0.087 mg/L (≈ 0.164 µM)
